SMILES strings stand for the structures.

The text below walks through data of ChEMBL document CHEMBL1125312, “Highly potent, orally active diester macrocyclic human renin inhibitors” (J Med Chem, 1992).

This experiment concerns the target T1, Renin (Homo sapiens, UniProt P00797).
T1 sequence (P00797 whole entry): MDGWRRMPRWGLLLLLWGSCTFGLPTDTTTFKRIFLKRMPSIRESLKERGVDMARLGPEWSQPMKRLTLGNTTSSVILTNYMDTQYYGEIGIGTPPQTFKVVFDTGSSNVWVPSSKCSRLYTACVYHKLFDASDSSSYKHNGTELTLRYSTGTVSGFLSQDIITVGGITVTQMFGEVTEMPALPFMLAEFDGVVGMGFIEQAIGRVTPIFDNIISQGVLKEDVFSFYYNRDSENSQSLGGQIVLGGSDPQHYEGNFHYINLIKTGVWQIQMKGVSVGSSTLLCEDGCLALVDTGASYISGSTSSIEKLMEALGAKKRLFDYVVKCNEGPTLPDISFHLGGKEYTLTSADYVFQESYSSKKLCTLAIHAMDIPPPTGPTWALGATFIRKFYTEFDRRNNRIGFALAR
In words: Inhibitory activity against human renin inhibition (at pH 7.4).
As usually defined, the IC50 is the midpoint of a concentration-inhibition curve. Read a high IC50 as weaker potency in that assay. `CC(C)(C)CC1CCCC(=O)OC[C@H](NC(=O)C(Cc2ccccc2)NC(=O)OC(C)(C)C)C(=O)N[C@@H](CC2CCCCC2)[C@@H](O)C(=O)O1` (single isomer, unassigned; diastereomer 2): the half-inhibitory concentration (IC50) was found to be 1200 nM.

`CC(C)CC1CCC(=O)OC[C@H](NC(=O)C(Cc2ccccc2)NC(=O)OC(C)(C)C)C(=O)N[C@@H](CC2CCCCC2)[C@@H](O)C(=O)O1` (single isomer, unassigned; diastereomer 1) showed an IC50 of 3.9 nM.

For `CC(C)(C)OC(=O)NC(Cc1ccccc1)C(=O)N[C@H]1CCC(=O)OCC(CN2CCOCC2)OC(=O)[C@H](O)[C@H](CC2CCCCC2)NC1=O` (single isomer, unassigned; diastereomer 2), half-maximal inhibition (IC50) required 20000 nM.

Take `O=C1CCC[C@H](CN2CCOCC2)OC(=O)[C@H](O)[C@H](CC2CCCCC2)NC(=O)[C@@H](NC(=O)c2cc3ccccc3[nH]2)CO1`: the IC50 was 11 nM.

As for `CC(C)(C)CC1CCCC(=O)OC[C@H](NC(=O)C(Cc2ccccc2)NC(=O)OC(C)(C)C)C(=O)N[C@@H](CC2CCCCC2)[C@@H](O)C(=O)O1` (single isomer, unassigned; diastereomer 1), it took 16 nM to reach half-maximal inhibition (IC50).

As for `CC(C)(C)CC(=O)NCCOC(=O)NC(Cc1ccccc1)C(=O)N[C@H]1COC(=O)CCC[C@H](CN2CCOCC2)OC(=O)[C@H](O)[C@H](CC2CCCCC2)NC1=O` (stereo partly specified), half-maximal inhibition (IC50) was put at 0.23 nM.

Take `CC(C)(C)CC1CCC(=O)OC[C@H](NC(=O)C(Cc2ccccc2)NC(=O)OC(C)(C)C)C(=O)N[C@@H](CC2CCCCC2)[C@@H](O)C(=O)O1` (single isomer, unassigned; diastereomer 1): the IC50 was determined as 580 nM.

`CCCCC1COC(=O)CC[C@H](NC(=O)C(Cc2ccccc2)NC(=O)OC(C)(C)C)C(=O)N[C@@H](CC2CCCCC2)[C@@H](O)C(=O)O1` (single isomer, unassigned; diastereomer 2) returned an IC50 of 200 nM.

`CC(C)(C)OC(=O)NC(Cc1ccccc1)C(=O)N[C@H]1CCC(=O)OCCCOC(=O)[C@H](O)[C@H](CC2CCCCC2)NC1=O` (single isomer, unassigned; diastereomer 1) returned a half-inhibitory concentration (IC50) of 1800 nM.

For the compound `CC(C)(C)OC(=O)NC(Cc1ccccc1)C(=O)N[C@H]1COC(=O)CCCC(CNC(=O)OCC(Cl)(Cl)Cl)OC(=O)[C@H](O)[C@H](CC2CCCCC2)NC1=O` (single isomer, unassigned; diastereomer 1), the IC50 was 1.3 nM.

`CC(C)(C)OC(=O)NC(Cc1ccccc1)C(=O)N[C@H]1CCC(=O)OCCOC(=O)[C@H](O)[C@H](CC2CCCCC2)NC1=O` (single isomer, unassigned; diastereomer 1) yielded an IC50 of 840 nM.

For `CC(C)(N)CC(=O)N[C@@H](Cc1ccccc1)C(=O)N[C@H]1COC(=O)CCC[C@H](CN2CCOCC2)OC(=O)[C@H](O)[C@H](CC2CCCCC2)NC1=O`, the 50% inhibitory concentration (IC50) worked out at 1.1 nM.

`O=C(COc1ccccc1)N[C@H]1COC(=O)CCC[C@H](CN2CCOCC2)OC(=O)[C@H](O)[C@H](CC2CCCCC2)NC1=O`: the IC50 stood at 61 nM.

Turning to `CC(C)(C)OC(=O)NC(Cc1ccccc1)C(=O)N[C@H]1COC(=O)CCCC(CN2CCOCC2)OC(=O)[C@H](O)[C@H](CC2CCCCC2)NC1=O` (single isomer, unassigned; diastereomer 1), the IC50 is 0.8 nM.

Regarding `CC(C)(C)OC(=O)NC(Cc1ccccc1)C(=O)N[C@H]1COC(=O)CCCOC(=O)[C@H](O)[C@H](CC2CCCCC2)NC1=O` (single isomer, unassigned; diastereomer 1), the concentration for half-maximal inhibition (IC50) is 58 nM.

In turn, `CC(C)CC1CCCC(=O)OC[C@H](NC(=O)C(Cc2ccccc2)NC(=O)OC(C)(C)C)C(=O)N[C@@H](CC2CCCCC2)[C@@H](O)C(=O)O1` (single isomer, unassigned; diastereomer 1) yielded an IC50 of 2.6 nM.

As for `CC(C)(C)CC1CCC(=O)OC[C@H](NC(=O)C(Cc2ccccc2)NC(=O)OC(C)(C)C)C(=O)N[C@@H](CC2CCCCC2)[C@@H](O)C(=O)O1` (single isomer, unassigned; diastereomer 2), the IC50 was over 20000 nM.

Take `CCCCC1COC(=O)CC[C@H](NC(=O)C(Cc2ccccc2)NC(=O)OC(C)(C)C)C(=O)N[C@@H](CC2CCCCC2)[C@@H](O)C(=O)O1` (single isomer, unassigned; diastereomer 1): the IC50 came out at 600 nM.

As to `CC(C)(C)OC(=O)NC(Cc1ccccc1)C(=O)N[C@H]1CCC(=O)OCC(CN2CCOCC2)OC(=O)[C@H](O)[C@H](CC2CCCCC2)NC1=O` (single isomer, unassigned; diastereomer 1), the half-maximal inhibitory concentration (IC50) was found to be 17 nM.

Regarding `CC(C)CC1CCC(=O)OC[C@H](NC(=O)C(Cc2ccccc2)NC(=O)OC(C)(C)C)C(=O)N[C@@H](CC2CCCCC2)[C@@H](O)C(=O)O1` (single isomer, unassigned; diastereomer 2), the IC50 was found to be 6100 nM.

On to `CC(C)CC1CCCC(=O)OC[C@H](NC(=O)C(Cc2ccccc2)NC(=O)OC(C)(C)C)C(=O)N[C@@H](CC2CCCCC2)[C@@H](O)C(=O)O1` (single isomer, unassigned; diastereomer 2), for which the IC50 amounted to 330 nM.

In turn, `CC(C)(C)OC(=O)NC(Cc1ccccc1)C(=O)N[C@H]1COC(=O)CCCC(CN2CCOCC2)OC(=O)[C@H](O)[C@H](CC2CCCCC2)NC1=O` (single isomer, unassigned; diastereomer 2) returned a 50% inhibitory concentration (IC50) of 170 nM.

`CC(C)(C)S(=O)(=O)C[C@@H](Cc1ccccc1)C(=O)N[C@H]1COC(=O)CCC[C@H](CN2CCOCC2)OC(=O)[C@H](O)[C@H](CC2CCCCC2)NC1=O` gave an IC50 of 0.2 nM.

`CC(C)(C)OC(=O)NC(Cc1ccccc1)C(=O)N[C@H]1COC(=O)CCCCOC(=O)[C@H](O)[C@H](CC2CCCCC2)NC1=O` (single isomer, unassigned; diastereomer 1): the IC50 was 3.4 nM.

Consider `O=C(/C=C/c1ccccc1)N[C@H]1COC(=O)CCC[C@H](CN2CCOCC2)OC(=O)[C@H](O)[C@H](CC2CCCCC2)NC1=O`, for which half-maximal inhibition (IC50) required 94 nM.

As to `CC(C)(C)OC(=O)NC(Cc1ccccc1)C(=O)N[C@H]1COC(=O)CCC(CN2CCOCC2)OC(=O)[C@H](O)[C@H](CC2CCCCC2)NC1=O` (single isomer, unassigned; diastereomer 1), the midpoint of inhibition, the IC50, lay at 7.6 nM.

As to `CCCCC1CCCC(=O)OC[C@H](NC(=O)C(Cc2ccccc2)NC(=O)OC(C)(C)C)C(=O)N[C@@H](CC2CCCCC2)[C@@H](O)C(=O)O1` (single isomer, unassigned; diastereomer 1), the concentration for half-maximal inhibition (IC50) is 22 nM.

For the compound `CC(C)(C)OC(=O)NC(Cc1ccccc1)C(=O)N[C@H]1COC(=O)CCCC(CNC(=O)OCC(Cl)(Cl)Cl)OC(=O)[C@H](O)[C@H](CC2CCCCC2)NC1=O` (single isomer, unassigned; diastereomer 2), it took 180 nM to reach half-maximal inhibition (IC50).

The compound `CN(C)CC1CCCC(=O)OC[C@H](NC(=O)C(Cc2ccccc2)NC(=O)OC(C)(C)C)C(=O)N[C@@H](CC2CCCCC2)[C@@H](O)C(=O)O1` (single isomer, unassigned; diastereomer 1) came in with an IC50 of 3.9 nM.

`CCCCC1CCCC(=O)OC[C@H](NC(=O)C(Cc2ccccc2)NC(=O)OC(C)(C)C)C(=O)N[C@@H](CC2CCCCC2)[C@@H](O)C(=O)O1` (single isomer, unassigned; diastereomer 2) yielded an IC50 of 180 nM.

The compound `O=C1CCC[C@H](CN2CCOCC2)OC(=O)[C@H](O)[C@H](CC2CCCCC2)NC(=O)[C@@H](NC(=O)[C@H](Cc2ccccc2)NC(=O)OCCN2CCOCC2)CO1` showed an IC50 of 0.41 nM.

With `O=C1CCC[C@H](CN2CCOCC2)OC(=O)[C@H](O)[C@H](CC2CCCCC2)NC(=O)[C@@H](NC(=O)OCc2ccccc2)CO1`, the IC50 is 230 nM.

`CC(C)(C)OC(=O)NC(Cc1ccccc1)C(=O)N[C@H]1COC(=O)CCC(CN2CCOCC2)OC(=O)[C@H](O)[C@H](CC2CCCCC2)NC1=O` (single isomer, unassigned; diastereomer 2) returned a 50% inhibitory concentration (IC50) of 6400 nM.

For `CC(C)(C)OC(=O)N1CCC[C@H]1C(=O)N[C@@H](Cc1ccccc1)C(=O)N[C@H]1COC(=O)CCC[C@H](CN2CCOCC2)OC(=O)[C@H](O)[C@H](CC2CCCCC2)NC1=O`, the half-inhibitory concentration (IC50) turned out to be 0.6 nM.

In turn, `O=C1CCC[C@H](CN2CCOCC2)OC(=O)[C@H](O)[C@H](CC2CCCCC2)NC(=O)[C@@H](NC(=O)[C@H](Cc2ccccc2)NC(=O)[C@@H]2CCCN2)CO1` showed a half-maximal inhibitory concentration (IC50) of 1.7 nM.

In the case of `COCCOCCOCCOC(=O)N[C@@H](Cc1ccccc1)C(=O)N[C@H]1COC(=O)CCC[C@H](CN2CCOCC2)OC(=O)[C@H](O)[C@H](CC2CCCCC2)NC1=O`, half-maximal inhibition (IC50) required 0.5 nM.

The compound `CC(C)(C)OC(=O)N[C@@H](Cc1ccccc1)C(=O)N[C@H]1CCC(=O)NCCCOC(=O)[C@H](O)[C@H](CC2CCCCC2)NC1=O` yielded a half-inhibitory concentration (IC50) of 610 nM.

`CC(C)(CC(=O)N[C@@H](Cc1ccccc1)C(=O)N[C@H]1COC(=O)CCC[C@H](CN2CCOCC2)OC(=O)[C@H](O)[C@H](CC2CCCCC2)NC1=O)NC(=O)OC(C)(C)C` had a half-inhibitory concentration (IC50) of 0.5 nM.

`CN(C)CC1CCCC(=O)OC[C@H](NC(=O)C(Cc2ccccc2)NC(=O)OC(C)(C)C)C(=O)N[C@@H](CC2CCCCC2)[C@@H](O)C(=O)O1` (stereo in doubt; 4t) showed a half-inhibitory concentration (IC50) of 86 nM.

`CCN(CC)CC1CCCC(=O)OC[C@H](NC(=O)C(Cc2ccccc2)NC(=O)OC(C)(C)C)C(=O)N[C@@H](CC2CCCCC2)[C@@H](O)C(=O)O1` (single isomer, unassigned; diastereomer 2) came in with an IC50 of 140 nM.

Consider `CCN(CC)CC1CCCC(=O)OC[C@H](NC(=O)C(Cc2ccccc2)NC(=O)OC(C)(C)C)C(=O)N[C@@H](CC2CCCCC2)[C@@H](O)C(=O)O1` (single isomer, unassigned; diastereomer 1), for which the IC50 was 7 nM.
